Values of other authors, collected in patent US20120141611A1, “METHODS AND COMPOSITIONS USING ERGOTHIONEINE TO TREAT A VARIETY OF HEALTH RELATED FACTORS” (Oxis International Inc., priority 2010, published 2012).
Values after ≈ are worked out from the molar mass of the structure shown. Read-outs that look alike come from different tables or passages of the source.

Key:
[1] = low concentrations; cited from earlier work
[2] = cited from earlier work
[3] = cited from earlier work; remark: listed apart in the source
[4] = physiological concentrations; cited from earlier work
[5] = animal studies, in the diet; cited from earlier work
[6] = Sheep; cited from earlier work
[7] = room temperature; cited from earlier work
[8] = Ox; cited from earlier work
glutathione peroxidase = conditions: mouse liver cytosol fractions; cited from earlier work
erythrocytes [9] = conditions: rats, administered in the diet; cited from earlier work
[10] = Fowl; cited from earlier work
erythrocytes [11] = conditions: added to hemolyzed erythrocytes or erythrocyte suspensions; cited from earlier work
cerebellum = conditions: decerebrate rabbit; cited from earlier work
mouse skin = conditions: UV-induced skin damage; cited from earlier work
[12] = Pig; cited from earlier work
[13] = physiological concentrations; cited from earlier work; remark: listed apart in the source
[14] = TLC densitometry, cited from earlier work
[15] = 225 g rat, controlled diet of ergothioneine supplementation

## C[N+](C)(C)[C@@H](Cc1c[nH]c(=S)[nH]1)C(=O)[O-] [Ergothioneine, ergothioneine]
[1]
  Radioprotection in vitro: very potent radioprotector even at low concentrations
[2]; Rabbit, Heart
  Concentration of LE in tissue: 2.7 mgs/100 gm fresh tissue
[2]; Rabbit, Kidney
  Concentration of LE in tissue: 0.3 mgs/100 gm fresh tissue
[2]; Rabbit, Liver
  Concentration of LE in tissue: 0.3 mgs/100 gm fresh tissue
[2]; Rabbit, Lungs
  Concentration of LE in tissue: 0.3 mgs/100 gm fresh tissue
[2]; Rabbit, RBC
  Concentration of LE in tissue: 10 mgs/100 gm fresh tissue
[2]; Rabbit, Spleen
  Concentration of LE in tissue: 1.0 mgs/100 gm fresh tissue
[2]; Rabbit, Testes
  Concentration of LE in tissue: 0.1 mgs/100 gm fresh tissue
[2]; Rabbit
  Concentration of l-ergothioneine in the blood: 1-10 mg/100 ml blood
[2]; optic nerves of the rabbit
  Ergothioneine in optic nerves: 30 µg/g
[3]; [15]
  Absorptive gain per day: 20 µg/day
  Fecal and urine loss: 2 ug/per day
[3]; 225 gm rat, 20 ug/day in the diet (Mayumi et al.)
  Fraction of dietary ergothioneine absorbed: 90%
[3]; rat, 89 ug ergothioneine/kg-day supplementation
  Time to double the total body amount of ergothioneine: approximately 2 months
[3]; rat, from gain and loss per day
  Accumulation rate: 90%
[4]
  Inactivation of hydroxyl radical: potent diffusion-controlled inactivation
[5]
  Dietary level producing measurable changes in circulating whole blood levels: 1 part per 100,000
[6]
  Concentration of l-ergothioneine in the blood: 2-6 mg/100 ml blood
[7]
  Solubility limit: 900 mM (≈ 206 mg/mL)
[8]
  Concentration of l-ergothioneine in the blood: 0.5-2 mg/100 ml blood
Glutathione peroxidase
  Glutathione peroxidase activity: markedly increased
Erythrocytes [9]
  Erythrocyte lactate level on starvation: prevented a 40% starvation-induced diminution
[10]
  Concentration of l-ergothioneine in the blood: 2-10 mg/100 ml blood
Erythrocytes [11]
  Lactate production: increased lactate production
cerebellum
  Action on the electrical activity of the cerebellum: some excitatory action
Mouse skin
  Protection of mouse skin in vivo: failed to protect mouse skin in vivo
[12]
  Concentration of l-ergothioneine in the blood: 3-27 mg/100 ml blood
[13]
  Protection of API against HOCl-induced inactivation: protect very efficiently
[14]; brain
  Level in rat tissue: 0.41 mg/100 g
[14]; kidney
  Level in rat tissue: 1.58 mg/100 g
[14]; liver
  Level in rat tissue: 7.82 mg/100 g
[14]; plasma
  Level in rat tissue: 0.21 mg/100 g
[14]; testicle
  Level in rat tissue: 0.5 mg/100 g
